Results from ChEMBL document CHEMBL4265903, “Current trends in Hedgehog signaling pathway inhibition by small molecules” (Bioorg Med Chem Lett, 2018).

Key:
Format in all cases: cell-based
[1] = Inhibition of Smo-mediated hedgehog signaling pathway in mouse C3H10T1/2 cells after 6 days by Gli-dependent luciferase reporter gene assay; settings: C3H 10T1/2, 144 h
[2] = Inhibition of Smo-mediated hedgehog signaling pathway in mouse Light2 cells in Shh conditioned medium after 48 hrs by Gli-Renilla luciferase reporter gene assay
[3] = Inhibition of hedgehog signaling pathway in mouse Light2 cells in Shh-N conditioned medium after 24 hrs by dual luciferase reporter gene assay
[4] = Inhibition of hedgehog signaling pathway in mouse Light2 cells in Shh conditioned medium assessed as reduction in GLI1 expression by Western blot analysis
[5] = Inhibition of hedgehog signaling pathway in mouse Light2 cells in Shh conditioned medium assessed as reduction in GLI2 expression by Western blot analysis

| SMILES | IC50 [1] | IC50 [2] | also measured |
| --- | --- | --- | --- |
| COc1cc(C(=O)NC(=S)Nc2cccc(NC(=O)c3ccccc3)c2)cc(OC)c1OC | 650 nM |  |  |
| COc1cc(C(=O)NC(=N)Nc2ccc(C)c(NC(=O)c3ccc(-c4ccccc4)cc3)c2)cc(OC)c1OC | 15 nM |  |  |
| COc1ccc(/C=C/C(=O)c2cc(OC)c(OC)cc2OC)cc1OC |  | 4440 nM |  |
| Cc1ccc(Cn2ncc3nc(-c4ccc(N5CCN(C(=O)CCc6c[nH]c7ccccc67)CC5)cc4)[nH]c32)cc1 |  | 1400 nM |  |
| CC[C@@H](C)C(=O)O[C@@H](C)[C@]1(O)CC[C@@]2(O)[C@]1(C)[C@H](OC(=O)/C=C/c1ccccc1)C[C@@H]1[C@@]3(C)CC[C@H](O)CC3=CC[C@]12O |  |  | IC50 [3]: 3700 nM |
| COc1cc(C(=O)NC(=N)Nc2ccc(C)c(NC(=O)c3ccc(CCc4ccccc4)cc3)c2)cc(OC)c1OC | 2.8 nM |  |  |
| CC[C@H](C)C(=O)O[C@@H](C)[C@]1(O)CC[C@@]2(O)[C@]1(C)[C@H](OC(=O)/C=C/c1ccccc1)C[C@@H]1[C@@]3(C)CC[C@H](O)CC3=CC[C@]12O |  |  | IC50 [3]: 2900 nM |
| CCC(C)n1ncn(-c2ccc(N3CCN(c4ccc(OCC5COC(Cn6cncn6)(c6ccc(Cl)cc6Cl)O5)cc4)CC3)cc2)c1=O (stereo not given) [ITRACONAZOLE] |  | 690 nM |  |
| C[C@@H]1CC[C@@]2(NC1)O[C@H]1C[C@H]3[C@@H]4CC=C5C[C@@H](O[C@@H]6O[C@H](CO)[C@H](O)[C@H](O[C@@H]7O[C@H](CO)[C@@H](O)[C@H](O)[C@H]7O)[C@H]6O[C@@H]6O[C@@H](C)[C@H](O)[C@@H](O)[C@H]6O)CC[C@]5(C)[C@H]4CC[C@]3(C)[C@H]1[C@@H]2C [SOLASONINE] |  |  | IC50 [4]: 2490 nM; IC50 [5]: 2300 nM |
